Measurements: the supplement of paper PMC10307832

Columns and labels:
Assay in all cases: relative viability (nuclei count vs DMSO), 5 days (fraction); higher = more cells survive
COR-L23 = tested on: COR-L23
Summary of the method: (§1)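 After 5 days of treatment, lung cancer cells in 1536-well plates were fixed and stained in a single step (final 0.05% Triton X-100, 1% formaldehyde, 1 ug/ml Hoechst) and their nuclei counted on 4× images. Treatment had been applied by pin tool the day after seeding as one drug alone or as a fixed anchor-drug dose with five library-drug doses (not always all listed) in √10 steps. Relative viability is the nuclei count of treated wells divided by that of vehicle wells, and values are medians of duplicate plates.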

ChaGo-K-1 = tested on: ChaGo-K-1
Summary of the method: as §1

EMC-BAC-2 = tested on: EMC-BAC-2
Summary of the method: as §1

EPLC-272H = tested on: EPLC-272H
Summary of the method: as §1

H3255 = tested on: H3255
Summary of the method: as §1

HCC-44 = tested on: HCC-44
Summary of the method: as §1

HCC-827 = tested on: HCC-827
Summary of the method: as §1

LCLC-103H = tested on: LCLC-103H
Summary of the method: as §1

LU99A = tested on: LU99A
Summary of the method: as §1

NCI-H1395 = tested on: NCI-H1395
Summary of the method: as §1

NCI-H1563 = tested on: NCI-H1563
Summary of the method: as §1

NCI-H1651 = tested on: NCI-H1651
Summary of the method: as §1

NCI-H1793 = tested on: NCI-H1793
Summary of the method: as §1

NCI-H1944 = tested on: NCI-H1944
Summary of the method: as §1

NCI-H2023 = tested on: NCI-H2023
Summary of the method: as §1

NCI-H2085 = tested on: NCI-H2085
Summary of the method: as §1

NCI-H2087 = tested on: NCI-H2087
Summary of the method: as §1

NCI-H2405 = tested on: NCI-H2405
Summary of the method: as §1

NCI-H520 = tested on: NCI-H520
Summary of the method: as §1

NCI-H650 = tested on: NCI-H650
Summary of the method: as §1

NCI-H838 = tested on: NCI-H838
Summary of the method: as §1

SK-MES-1 = tested on: SK-MES-1
Summary of the method: as §1

Cc1sc2c(c1C)C(c1ccc(Cl)cc1)=N[C@@H](CC(=O)OC(C)(C)C)c1nnc(C)n1-2 [JQ1] + N=C(N)NC(=N)NCCc1ccccc1 [Phenformin] (partner 250 µM)
relative viability (COR-L23; first compound 0.04 µM): 0.385
relative viability (COR-L23; first compound 0.1265 µM): 0.351
relative viability (COR-L23; first compound 0.4 µM): 0.428
relative viability (COR-L23; first compound 1.265 µM): 0.222
relative viability (COR-L23; first compound 4 µM): 0.227
relative viability (ChaGo-K-1; first compound 0.04 µM): 0.436
relative viability (ChaGo-K-1; first compound 0.1265 µM): 0.495
relative viability (ChaGo-K-1; first compound 0.4 µM): 0.401
relative viability (ChaGo-K-1; first compound 1.265 µM): 0.324
relative viability (ChaGo-K-1; first compound 4 µM): 0.286
relative viability (EMC-BAC-2; first compound 0.04 µM): 0.551
relative viability (EMC-BAC-2; first compound 0.1265 µM): 0.326
relative viability (EMC-BAC-2; first compound 0.4 µM): 0.454
relative viability (EMC-BAC-2; first compound 1.265 µM): 0.267
relative viability (EMC-BAC-2; first compound 4 µM): 0.264
relative viability (EPLC-272H; first compound 0.04 µM): 0.33
relative viability (EPLC-272H; first compound 0.1265 µM): 0.262
relative viability (EPLC-272H; first compound 0.4 µM): 0.249
relative viability (EPLC-272H; first compound 1.265 µM): 0.294
relative viability (EPLC-272H; first compound 4 µM): 0.188
relative viability (H3255; first compound 0.04 µM): 0.349
relative viability (H3255; first compound 0.1265 µM): 0.348
relative viability (H3255; first compound 0.4 µM): 0.35
relative viability (H3255; first compound 1.265 µM): 0.36
relative viability (H3255; first compound 4 µM): 0.36
relative viability (HCC-44; first compound 0.04 µM): 0.201
relative viability (HCC-44; first compound 0.1265 µM): 0.184
relative viability (HCC-44; first compound 0.4 µM): 0.161
relative viability (HCC-44; first compound 1.265 µM): 0.125
relative viability (HCC-44; first compound 4 µM): 0.111
relative viability (HCC-827; first compound 0.04 µM): 0.395
relative viability (HCC-827; first compound 0.4 µM): 0.349
relative viability (HCC-827; first compound 1.265 µM): 0.468
relative viability (HCC-827; first compound 4 µM): 0.449
relative viability (LCLC-103H; first compound 0.04 µM): 0.345
relative viability (LCLC-103H; first compound 0.1265 µM): 0.308
relative viability (LCLC-103H; first compound 0.4 µM): 0.371
relative viability (LCLC-103H; first compound 1.265 µM): 0.268
relative viability (LCLC-103H; first compound 4 µM): 0.28
relative viability (LU99A; first compound 0.04 µM): 0.776
relative viability (LU99A; first compound 0.1265 µM): 0.35
relative viability (LU99A; first compound 0.4 µM): 0.734
relative viability (LU99A; first compound 1.265 µM): 0.303
relative viability (LU99A; first compound 4 µM): 0.26
relative viability (NCI-H1395; first compound 0.04 µM): 0.439
relative viability (NCI-H1395; first compound 0.1265 µM): 0.417
relative viability (NCI-H1395; first compound 0.4 µM): 0.478
relative viability (NCI-H1395; first compound 1.265 µM): 0.455
relative viability (NCI-H1395; first compound 4 µM): 0.396
relative viability (NCI-H1563; first compound 0.04 µM): 0.672
relative viability (NCI-H1563; first compound 0.1265 µM): 0.571
relative viability (NCI-H1563; first compound 0.4 µM): 0.682
relative viability (NCI-H1563; first compound 1.265 µM): 0.596
relative viability (NCI-H1563; first compound 4 µM): 0.568
relative viability (NCI-H1651; first compound 0.04 µM): 0.265
relative viability (NCI-H1651; first compound 0.1265 µM): 0.249
relative viability (NCI-H1651; first compound 0.4 µM): 0.305
relative viability (NCI-H1651; first compound 1.265 µM): 0.245
relative viability (NCI-H1651; first compound 4 µM): 0.241
relative viability (NCI-H1793; first compound 0.04 µM): 0.315
relative viability (NCI-H1793; first compound 0.1265 µM): 0.382
relative viability (NCI-H1793; first compound 0.4 µM): 0.35
relative viability (NCI-H1793; first compound 1.265 µM): 0.274
relative viability (NCI-H1793; first compound 4 µM): 0.378
relative viability (NCI-H1944; first compound 0.04 µM): 0.195
relative viability (NCI-H1944; first compound 0.1265 µM): 0.174
relative viability (NCI-H1944; first compound 0.4 µM): 0.191
relative viability (NCI-H1944; first compound 1.265 µM): 0.149
relative viability (NCI-H1944; first compound 4 µM): 0.182
relative viability (NCI-H2023; first compound 0.04 µM): 0.399
relative viability (NCI-H2023; first compound 0.1265 µM): 0.354
relative viability (NCI-H2023; first compound 0.4 µM): 0.307
relative viability (NCI-H2023; first compound 1.265 µM): 0.177
relative viability (NCI-H2023; first compound 4 µM): 0.147
relative viability (NCI-H2085; first compound 0.04 µM): 0.712
relative viability (NCI-H2085; first compound 0.1265 µM): 0.611
relative viability (NCI-H2085; first compound 0.4 µM): 0.552
relative viability (NCI-H2085; first compound 1.265 µM): 0.393
relative viability (NCI-H2085; first compound 4 µM): 0.426
relative viability (NCI-H2087; first compound 0.04 µM): 0.52
relative viability (NCI-H2087; first compound 0.1265 µM): 0.406
relative viability (NCI-H2087; first compound 0.4 µM): 0.406
relative viability (NCI-H2087; first compound 1.265 µM): 0.266
relative viability (NCI-H2087; first compound 4 µM): 0.273
relative viability (NCI-H2405; first compound 0.04 µM): 0.381
relative viability (NCI-H2405; first compound 0.1265 µM): 0.224
relative viability (NCI-H2405; first compound 0.4 µM): 0.385
relative viability (NCI-H2405; first compound 1.265 µM): 0.239
relative viability (NCI-H2405; first compound 4 µM): 0.223
relative viability (NCI-H520; first compound 0.04 µM): 0.475
relative viability (NCI-H520; first compound 0.1265 µM): 0.614
relative viability (NCI-H520; first compound 0.4 µM): 0.544
relative viability (NCI-H520; first compound 1.265 µM): 0.275
relative viability (NCI-H520; first compound 4 µM): 0.321
relative viability (NCI-H650; first compound 0.04 µM): 0.418
relative viability (NCI-H650; first compound 0.1265 µM): 0.358
relative viability (NCI-H650; first compound 0.4 µM): 0.313
relative viability (NCI-H650; first compound 1.265 µM): 0.273
relative viability (NCI-H650; first compound 4 µM): 0.25
relative viability (NCI-H838; first compound 0.04 µM): 0.554
relative viability (NCI-H838; first compound 0.1265 µM): 0.285
relative viability (NCI-H838; first compound 0.4 µM): 0.372
relative viability (NCI-H838; first compound 1.265 µM): 0.253
relative viability (NCI-H838; first compound 4 µM): 0.17
relative viability (SK-MES-1; first compound 0.04 µM): 0.672
relative viability (SK-MES-1; first compound 0.1265 µM): 0.496
relative viability (SK-MES-1; first compound 0.4 µM): 0.428
relative viability (SK-MES-1; first compound 1.265 µM): 0.307
relative viability (SK-MES-1; first compound 4 µM): 0.199
